Reference: patent publication US11925643B2, “Toll-like receptor 4 (TLR4) inhibitors and use thereof” (MOR RESEARCH APPLICATIONS LTD., priority 2018, dated 2024)
“Also recorded” adds a separate entry of the source.

Key:
[1] = system: C57BL mice; assay: Heart infarct size after LAD ligation (MI mice model); assay type: in vivo
Description: (§1) Male wild type mice (C57BL) were purchased from Harlan™ (Jerusalem, Israel). Mice were grown in a temperature-controlled atmosphere, 12/12 hours light/dark cycle and given standard food and tap water. The experiments were performed on 2-3-month-old male mice. All experiments were carried out in accordance with the guidelines of the Animal Care and Use Committee of Tel Aviv University with the Guide for the Care and Use of Laboratory Animals published by the US National Institutes of Health.
(§2) Mice were anesthetized (with a mixture of 100 mg/kg ketamine and 10 mg/kg xylazine), intubated and ventilated with air until spontaneous breathing commenced. The left anterior descending artery (LAD) was ligated with one single stitch, forming an ischemia that can be observed almost immediately. By closing the LAD, no further blood flow is permitted in that area, while the surrounding myocardial tissue is almost not affected. This surgical procedure imitates the pathobiological and pathophysiological aspects occurring in infarction-related myocardial ischemia.
Hearts of mice from tested groups were isolated, and pictures were taken to determine the extent of infarct relative to total area of the left ventricle to thereby determine the extent of cardio-protection by an exemplary decoy peptide. The viable heart sections were put in a 1% solution of 2,3,5-triphenyl tetrazolium chloride (TTC) in phosphate buffer for 10 min at 37° C. TTC stained the viable tissue in red while necrotic tissue remained discolored. Sections were fixed overnight in 4% formaldehyde to enhance the contrast between stained and unstained tissue. The sections were then placed between two cover slips and digitally photographed using a Nikon Coolpix 5000 camera, at a resolution of 1400×960 pixels, and quantified by using ImageJ software. The area of ischemia/infarction (TTC-negative) was presented as a percentage of the entire area of the section.
Myocardial infarction (MI) in animals may be mimicked by a procedure called left anterior descending artery (LAD) ligation, described in Materials and Methods above. A pilot dose response experiment was first conducted. Decoy peptide represented by compound PM6 (0.5, 1.0 and 5.0 mg/kg) or aqueous solution of 40% polyethylene glycol (PEG 600) were administered intravenously (IV) to C57BL mice, 1 hour before LAD ligation. All mice were kept under standard animal facility conditions for 24 hours. The heart infarct size was measured in all three groups.

[2] = system: C57BL mice; assay: Serum markers CK, LDH, troponin and GOT after LAD ligation; assay type: in vivo; conditions: 0.3 mg/kg IV one hour after ligation
[3] = system: TNF-α mRNA; assay: TNF-α mRNA in mouse myocardium by RT-qPCR after ischemia; assay type: in vivo, mice; conditions: 0.3 mg/kg 1 hour after MI induction
Description: Real-time RT-PCR experiments were performed in duplicates on an ABI 7900 instrument (Applied Biosystems™) using Taqman™ Master Mix (Applied Biosystems™). The average threshold cycles (Ct) of the duplicates were used to calculate the relative expression levels of the following genes: TLR4 (Applied Biosystems™ assay primer ID: Mm00569848_m1 Tlr4), TLR2 (assay primer ID: Mm01769726_m1 Tlr2), TNF-α (assay primer ID: Mm00443260_g1 Tnf) and IL-1β (assay primer ID: Mm00434228_m1 II1b) in vitro and in vivo following hypoxia or ischemia, respectively. The reference gene was TBP and the primer used was derived from mouse TATA-box binding protein (Applied Biosystems™ assay primer ID: Mm00446973_m1 Tbp). Amounts of TLR2, TLR4, TNF-α and IL-1β mRNAs in each sample were calculated relative to TBP mRNA, based on the corresponding Cts, as Relative Quantity (RQ) values, and normalized taking as 1 a randomly selected sample of the control group (TBP mRNA). […]
Real time reverse transcriptase PCR (RT-qPCR) was conducted to identify the effect of a disclosed decoy peptide on TLR-mediated induction of the inflammatory cytokine TNF-α. The effect of an exemplary decoy peptide PM6 (0.3 mg/kg; administered 1 hour after MI induction) on TNF-α mRNA expression in mice myocardium was assessed 24 h and 7 days after ischemia induction.

[4] = system: C57BL mice; assay: Serum markers CK, LDH, troponin and GOT after LAD ligation; assay type: in vivo
Description: as §1, §2
Blood was drawn out from the mice and immediately centrifuged at […] for 10 minutes to isolate the serum, which was obtained from the top portion of the test tube. The serum was mixed with double distilled water (DDW) in a ratio of 1:10 and was ready for assaying. Various markers were observed (CK, LDH & troponin) to determine cardiac damage in the serum.
A dose response experiment was conducted using the experiment design of the pilot experiment. PM6 was given to mice in three doses: 0.05, 0.30 and 1.00 mg/kg. Blood levels of four serum markers were assessed. The levels of three markers CK, LDH and troponin were correlated with MI severity. Troponin is a complex of three regulatory proteins that is integral to muscle contraction in skeletal muscle and cardiac muscle, and serves as a highly specific marker for myocardial infarction or heart muscle cell death. The level of the fourth marker GOT was used as an indicator for liver functions.

[5] = 0.3 mg/kg IV 1 hour before LAD ligation

CCCCCCCCNc1nc(=O)n(Cc2ccccc2)cc1C [PM6, 1-benzyl-5-methyl-4-(octylamino)pyrimidin-2(1H)-one]
heart infarct size ([1]; 0.05 mg/kg IV 1 hour before LAD ligation): significantly reduced | infarct size ([1]; 0.3 mg/kg IV 1 hour after ligation, 7 days): significantly reduced | heart infarct size ([1]; 0.30 mg/kg IV 1 hour before LAD ligation): significantly reduced; also recorded: significantly effective | heart infarct size ([1]; 1.00 mg/kg IV 1 hour before LAD ligation): significantly reduced | infarct size ([1]; pilot, 0.5 mg/kg IV 1 hour before LAD ligation, 24 hours): significant effect | blood level of CK ([2]; 1 week): very impressive down regulation | blood level of LDH ([2]; 1 week): very impressive down regulation | level of GOT ([2]; 24 h and 7 days): did not changed dramatically | blood level of CK ([2]; 24 hours): very impressive down regulation | blood level of LDH ([2]; 24 hours): very impressive down regulation | TNF-α mRNA level in myocardium ([3]; 24 h): significant reduction | TNF-α mRNA level in myocardium ([3]; 7 days): significant reduction | serum CK level [4, 5]: significantly reduced; also recorded: significant reduction | serum LDH level [4, 5]: significantly reduced; also recorded: significant reduction | serum troponin level [4, 5]: significantly reduced; also recorded: significant reduction | GOT level (liver function) ([4]; 0.05, 0.30 and 1.00 mg/kg IV 1 hour before LAD ligation): did not affect
